Test results as given in patent US11753403B2, “EIF4E inhibitors and uses thereof” (PIC Therapeutics, Inc., priority 2020, dated 2023).
pIC50: −log10 of the molar value.

molecular target: Human eIF4E (aa 28-217) / biotin labeled 4G2 peptide (Homo sapiens (Human), UniProt P06730); test: Human eIF4E/4G2 binding assay (TR-FRET); details: Human eIF4E/4G2 TR-FRET binding assay; head says IC50, legend says EC50
Description: Example 5. Compound Testing in Human eIF4E/4G2 Binding Assay
Human eIF4E (aa 28-217) with a C-terminal His-tag was expressed in E. coli in inclusion bodies. The protein was solubilized with 8 M urea and purified under denaturing conditions using nickel-charged HisTrap HP columns (GE Healthcare). The purified protein was then refolded by diluting in 20 mM Hepes pH 7.0, 0.5 M NaCl, 1 mM DTT, 1 mM EDTA, 0.5 M arginine plus 6 M urea, and then dialyzing overnight into the same buffer without the urea. The protein was further dialyzed into 20 mM Hepes, pH 6.5, 50 mM NaCl, 1 mM EDTA, 1 mM DTT, and concentrated using Hitrap SP sepharose FF columns (GE Healthcare). The concentrated protein was dialyzed into 20 mM Hepes, pH 7.0, 0.5M NaCl, 5 mM DTT and 10% glycerol, and stored at −80° C. until use.
Test compounds (3.43 mM stock in DMSO) were diluted 2-fold in series in DMSO (10 concentration points). Compound solutions (1.2 μl/well) were added into black 384-well polypropylene microplates (Matrix, Thermal Scientific). Twenty-two microliters per well of Assay Buffer (50 mM NaPi, pH 6.5, 50 mM KCl, 1 mM DTT and 0.5 mg/ml gamma globulin) and eight microliters per well of 82.5 nM purified eIF4E in Assay Buffer were added. The samples were incubated at room temperature (20-23° C.) for 4 hours. Biotin labeled 4G2 peptide (Ac-Lys-Gln-Tyr-Asp-Arg-Glu-Phe-Leu-Leu-Asp-Phe-Gln-Phe-Met-Pro-Lys(Aha-Bio)-NH2, 1.75 μM stock in DMSO) was diluted to 0.14 μM in Assay Buffer (without DTT) and 5 μl/well was added. The samples were incubated at room temperature for 20 min. Five microliters per well of 6.4 nM Eu-streptavidin (Eu-SA, Perkin Elmer) and 80 nM Allophycocyanin (APC)-anti His antibody (Columbia Biosciences) in Assay Buffer (without DTT) were then added and the samples were incubated at room temperature for 20 min.
Assay signals were monitored by reading excitation at 340 nm and emission fluorescence at 615 nm and 665 nm on an Envision reader (Perkin Elmer). Normalized TR-FRET (time-resolved fluorescence resonance energy transfer) assay signal (Rn) was calculated by the formula: Rn=[(A−Ba−C×D)/(D−Bd)]×(Dc−Bd) Where A is the fluorescence intensity of the sample at 665 nm, • D is the fluorescence intensity of the sample at 615 nm, • Ba and Bd are plate backgrounds at 665 nm and 615 nm, respectively, • Dc is the fluorescence intensity of 0.78 nM Eu-SA in the assay buffer at 615 nm The cross-talk factor (C) is determined by the following formula: C=(Ac−Ba)/(Dc−Bd) Where Ac is the fluorescence intensity of 0.78 nM Eu-SA in the assay buffer at 665 nm.
IC50 values were calculated using xLFit program (IDBS). Table 2 below lists EC50 of some compounds, wherein A represents EC50≤1 uM; B represents 1 uM<EC50≤10 uM; and C represents EC50>10 uM.

Human eIF4E (aa 28-217) / biotin labeled 4G2 peptide, sequence (P06730 28-217): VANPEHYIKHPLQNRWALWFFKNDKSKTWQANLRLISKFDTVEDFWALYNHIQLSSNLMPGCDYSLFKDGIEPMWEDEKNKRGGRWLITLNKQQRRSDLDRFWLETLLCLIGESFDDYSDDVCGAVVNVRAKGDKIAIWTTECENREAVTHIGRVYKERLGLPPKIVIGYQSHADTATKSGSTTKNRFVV

| SMILES | pIC50 |
| --- | --- |
| CC(C)c1sc(NCC(Cc2ccccc2)C(=O)O)nc1-c1ccc(Cl)c(Cl)c1 (stereo not drawn) [I-1, 2-benzyl-3-(4-(3,4-dichlorophenyl)-5-isopropylthiazol-2-ylamino)propanoic acid] | ≥ 6.00 |
| CC(C)c1sc(NCC(Cc2cccc3c2OCO3)C(=O)O)nc1-c1ccc(Cl)c(Cl)c1 (stereo not drawn) [I-2] | ≥ 6.00 |
| COc1ccccc1CC(CNc1nc(-c2ccc(Cl)c(Cl)c2)c(C(C)C)s1)C(=O)O (stereo not drawn) [I-3] | ≥ 6.00 |
| CC(C)c1sc(NCC(Cc2cccc(O)c2)C(=O)O)nc1-c1ccc(Cl)c(Cl)c1 (stereo not drawn) [I-4] | 5.00 to 6.00 |
| CC(C)c1sc(NCC(Cc2cccc(F)c2)C(=O)O)nc1-c1ccc(Cl)c(Cl)c1 (stereo not drawn) [I-5] | 5.00 to 6.00 |
| CC(C)c1sc(NCC(CCc2ccccc2)C(=O)O)nc1-c1ccc(Cl)c(Cl)c1 (stereo not drawn) [I-6] | ≥ 6.00 |
| CC(C)c1sc(NCC(Cc2cccc3cc[nH]c23)C(=O)O)nc1-c1ccc(Cl)c(Cl)c1 (stereo not drawn) [I-7, 2-((1H-indol-7-yl)methyl)-3-(4-(3,4-dichlorophenyl)-5-isopropylthiazol-2-ylamino) propanoic acid] | ≥ 6.00 |
| CC(C)c1sc(NCC(Cc2cccc3[nH]ccc23)C(=O)O)nc1-c1ccc(Cl)c(Cl)c1 (stereo not drawn) [I-8] | 5.00 to 6.00 |
| CC(C)c1sc(NCC(Cc2c[nH]c3ccccc23)C(=O)O)nc1-c1ccc(Cl)c(Cl)c1 (stereo not drawn) [I-9] | 5.00 to 6.00 |
| CC(C)c1sc(NCC(Cc2ccc3[nH]ccc3c2)C(=O)O)nc1-c1ccc(Cl)c(Cl)c1 (stereo not drawn) [I-10] | 5.00 to 6.00 |
| O=C(O)C(CNc1nc(-c2ccc(Cl)c(Cl)c2)c(C2CC2)s1)Cc1ccccc1 (stereo not drawn) [I-11] | 5.00 to 6.00 |
| COc1ccccc1CC(CNc1nc(-c2ccc(Cl)c(Cl)c2)c(C2CC2)s1)C(=O)O (stereo not drawn) [I-12] | 5.00 to 6.00 |
| O=C(O)C(CNc1nc(-c2ccc(Cl)c(Cl)c2)c(C2CC2)s1)Cc1cccc(O)c1 (stereo not drawn) [I-13] | 5.00 to 6.00 |
| O=C(O)C(CNc1nc(-c2ccc(Cl)c(Cl)c2)c(C2CC2)s1)Cc1cccc(F)c1 (stereo not drawn) [I-14] | 5.00 to 6.00 |
| O=C(O)C(CCc1ccccc1)CNc1nc(-c2ccc(Cl)c(Cl)c2)c(C2CC2)s1 (stereo not drawn) [I-15] | 5.00 to 6.00 |
| O=C(O)C(CNc1nc(-c2ccc(Cl)c(Cl)c2)c(C2CC2)s1)Cc1cccc2[nH]ccc12 (stereo not drawn) [I-16] | 5.00 to 6.00 |
| O=C(O)C(CNc1nc(-c2ccc(Cl)c(Cl)c2)c(C2CC2)s1)Cc1ccc2[nH]ccc2c1 (stereo not drawn) [I-17] | ≥ 6.00 |
| CC(C)Cc1sc(NCC(Cc2cccc3c2OCO3)C(=O)O)nc1-c1ccc(Cl)c(Cl)c1 (stereo not drawn) [I-19] | ≥ 6.00 |
| COc1ccccc1CC(CNc1nc(-c2ccc(Cl)c(Cl)c2)c(CC(C)C)s1)C(=O)O (stereo not drawn) [I-20] | ≥ 6.00 |
| CC(C)Cc1sc(NCC(Cc2cccc(O)c2)C(=O)O)nc1-c1ccc(Cl)c(Cl)c1 (stereo not drawn) [I-21] | 5.00 to 6.00 |
| CC(C)Cc1sc(NCC(Cc2cccc(F)c2)C(=O)O)nc1-c1ccc(Cl)c(Cl)c1 (stereo not drawn) [I-22] | ≥ 6.00 |

| SMILES | pIC50 |
| --- | --- |
| CC(C)Cc1sc(NCC(CCc2ccccc2)C(=O)O)nc1-c1ccc(Cl)c(Cl)c1 (stereo not drawn) [I-23] | ≥ 6.00 |
| CC(C)Cc1sc(NCC(Cc2cccc3cc[nH]c23)C(=O)O)nc1-c1ccc(Cl)c(Cl)c1 (stereo not drawn) [I-24] | 5.00 to 6.00 |
| CC(C)Cc1sc(NCC(Cc2cccc3[nH]ccc23)C(=O)O)nc1-c1ccc(Cl)c(Cl)c1 (stereo not drawn) [I-25] | ≥ 6.00 |
| CC(C)Cc1sc(NCC(Cc2c[nH]c3ccccc23)C(=O)O)nc1-c1ccc(Cl)c(Cl)c1 (stereo not drawn) [I-26] | 5.00 to 6.00 |
| CC(C)Cc1sc(NCC(Cc2ccc3[nH]ccc3c2)C(=O)O)nc1-c1ccc(Cl)c(Cl)c1 (stereo not drawn) [I-27] | ≥ 6.00 |
| COc1cccc(-c2nc(NCC(Cc3ccccc3)C(=O)O)sc2C(C)C)c1 (stereo not drawn) [I-28] | < 5.00 |
| COc1cccc(-c2nc(NCC(Cc3cccc4c3OCO4)C(=O)O)sc2C(C)C)c1 (stereo not drawn) [I-29] | 5.00 to 6.00 |
| COc1cccc(-c2nc(NCC(Cc3ccccc3OC)C(=O)O)sc2C(C)C)c1 (stereo not drawn) [I-30] | 5.00 to 6.00 |
| COc1cccc(-c2nc(NCC(Cc3cccc(O)c3)C(=O)O)sc2C(C)C)c1 (stereo not drawn) [I-31] | < 5.00 |
| COc1cccc(-c2nc(NCC(Cc3cccc(F)c3)C(=O)O)sc2C(C)C)c1 (stereo not drawn) [I-32] | 5.00 to 6.00 |
| COc1cccc(-c2nc(NCC(CCc3ccccc3)C(=O)O)sc2C(C)C)c1 (stereo not drawn) [I-33] | 5.00 to 6.00 |
| COc1cccc(-c2nc(NCC(Cc3cccc4cc[nH]c34)C(=O)O)sc2C(C)C)c1 (stereo not drawn) [I-34] | 5.00 to 6.00 |
| COc1cccc(-c2nc(NCC(Cc3cccc4[nH]ccc34)C(=O)O)sc2C(C)C)c1 (stereo not drawn) [I-35] | 5.00 to 6.00 |
| COc1cccc(-c2nc(NCC(Cc3c[nH]c4ccccc34)C(=O)O)sc2C(C)C)c1 (stereo not drawn) [I-36] | 5.00 to 6.00 |
| COc1cccc(-c2nc(NCC(Cc3ccc4[nH]ccc4c3)C(=O)O)sc2C(C)C)c1 (stereo not drawn) [I-37] | 5.00 to 6.00 |
| CC(C)c1sc(NCC(Cc2ccccc2)C(=O)O)nc1-c1ccc(Cl)cc1 (stereo not drawn) [I-38] | 5.00 to 6.00 |
| CC(C)c1sc(NCC(Cc2cccc3c2OCO3)C(=O)O)nc1-c1ccc(Cl)cc1 (stereo not drawn) [I-39] | 5.00 to 6.00 |
| COc1ccccc1CC(CNc1nc(-c2ccc(Cl)cc2)c(C(C)C)s1)C(=O)O (stereo not drawn) [I-40] | 5.00 to 6.00 |
| CC(C)c1sc(NCC(Cc2cccc(O)c2)C(=O)O)nc1-c1ccc(Cl)cc1 (stereo not drawn) [I-41] | 5.00 to 6.00 |
| CC(C)c1sc(NCC(Cc2cccc(F)c2)C(=O)O)nc1-c1ccc(Cl)cc1 (stereo not drawn) [I-42] | 5.00 to 6.00 |
| CC(C)c1sc(NCC(CCc2ccccc2)C(=O)O)nc1-c1ccc(Cl)cc1 (stereo not drawn) [I-43] | 5.00 to 6.00 |

| SMILES | pIC50 |
| --- | --- |
| CC(C)c1sc(NCC(Cc2cccc3[nH]ccc23)C(=O)O)nc1-c1ccc(Cl)cc1 (stereo not drawn) [I-44] | 5.00 to 6.00 |
| CC(C)c1sc(NCC(Cc2c[nH]c3ccccc23)C(=O)O)nc1-c1ccc(Cl)cc1 (stereo not drawn) [I-45] | 5.00 to 6.00 |
| CC(C)c1sc(NCC(Cc2ccc3[nH]ccc3c2)C(=O)O)nc1-c1ccc(Cl)cc1 (stereo not drawn) [I-46] | 5.00 to 6.00 |
| CC(C)Cc1sc(N(CCC(=O)O)Cc2ccccc2)nc1-c1ccc(Cl)c(Cl)c1 [I-47, 3-(benzyl(4-(3,4-dichlorophenyl)-5-isobutylthiazol-2-yl)amino)propanoic acid] | ≥ 6.00 |
| CC(C)Cc1sc(N(CCC(=O)O)Cc2cccc3c2OCO3)nc1-c1ccc(Cl)c(Cl)c1 [I-48] | ≥ 6.00 |
| COc1ccccc1CN(CCC(=O)O)c1nc(-c2ccc(Cl)c(Cl)c2)c(CC(C)C)s1 [I-49] | ≥ 6.00 |
| CC(C)Cc1sc(N(CCC(=O)O)Cc2ccccc2O)nc1-c1ccc(Cl)c(Cl)c1 [I-50] | 5.00 to 6.00 |
| CC(C)Cc1sc(N(CCC(=O)O)Cc2cccc(F)c2)nc1-c1ccc(Cl)c(Cl)c1 [I-51] | ≥ 6.00 |
| CC(C)Cc1sc(N(CCC(=O)O)CCc2ccccc2)nc1-c1ccc(Cl)c(Cl)c1 [I-52] | ≥ 6.00 |
| CC(C)Cc1sc(N(CCC(=O)O)Cc2cccc3[nH]ccc23)nc1-c1ccc(Cl)c(Cl)c1 [I-53, 3-(((1H-indol-4-yl)methyl)(4-(3,4-dichlorophenyl)-5-isobutylthiazol-2-yl)amino)propanoic acid] | 5.00 to 6.00 |
| CC(C)Cc1sc(N(CCC(=O)O)Cc2c[nH]c3ccccc23)nc1-c1ccc(Cl)c(Cl)c1 [I-54] | 5.00 to 6.00 |
| CC(C)Cc1sc(N(CCC(=O)O)Cc2ccc3[nH]ccc3c2)nc1-c1ccc(Cl)c(Cl)c1 [I-55] | ≥ 6.00 |
| O=C(O)CCN(Cc1ccccc1)c1nc(-c2ccc(Cl)c(Cl)c2)c(C2CC2)s1 [I-56] | 5.00 to 6.00 |
| O=C(O)CCN(CCc1ccccc1)c1nc(-c2ccc(Cl)c(Cl)c2)c(C2CC2)s1 [I-57] | ≥ 6.00 |
| CC(C)Cc1sc(N(CCC(=O)O)CCC(=O)O)nc1-c1ccc(Cl)c(Cl)c1 [I-58, 3,3′-(4-(3,4-dichlorophenyl)-5-isobutylthiazol-2-ylazanediyl)dipropanoic acid] | < 5.00 |
| CC(C)Cc1sc(N(CC(=O)O)Cc2ccccc2)nc1-c1ccc(Cl)c(Cl)c1 [I-59] | ≥ 6.00 |
| CC(C)Cc1sc(N(CCc2ccccc2)CC(=O)O)nc1-c1ccc(Cl)c(Cl)c1 [I-60] | ≥ 6.00 |
| CC(C)Cc1sc(N(CCC(N)=O)CCC(=O)O)nc1-c1ccc(Cl)c(Cl)c1 [I-61] | < 5.00 |
| CC(C)Cc1sc(N(CCC(=O)O)Cc2cccnc2)nc1-c1ccc(Cl)c(Cl)c1 [I-62] | 5.00 to 6.00 |
| CC(C)Cc1sc(N(CCC(=O)O)Cc2ccncc2)nc1-c1ccc(Cl)c(Cl)c1 [I-63] | 5.00 to 6.00 |
| CC(C)Cc1sc(N(CCC(=O)O)CC(N)=O)nc1-c1ccc(Cl)c(Cl)c1 [I-64] | 5.00 to 6.00 |
